Results as given in ChEMBL document CHEMBL3046328, “Ligand-based pharmacophore detection, screening of potential pharmacophore and docking studies, to get effective glycogen synthase kinase inhibitors” (Med Chem Res, 2013).

Experiments:
[1] = biological target: Glycogen synthase kinase-3 beta (Homo sapiens, UniProt P49841); assay: Inhibition of GSK3beta (unknown origin)
[2] = biological target: T1, Glycogen synthase kinase-3 (Homo sapiens, UniProt P49840+P49841); assay: Inhibition of GSK3 (unknown origin); format: protein assay
T1 sequence (P49840 whole entry, looked up): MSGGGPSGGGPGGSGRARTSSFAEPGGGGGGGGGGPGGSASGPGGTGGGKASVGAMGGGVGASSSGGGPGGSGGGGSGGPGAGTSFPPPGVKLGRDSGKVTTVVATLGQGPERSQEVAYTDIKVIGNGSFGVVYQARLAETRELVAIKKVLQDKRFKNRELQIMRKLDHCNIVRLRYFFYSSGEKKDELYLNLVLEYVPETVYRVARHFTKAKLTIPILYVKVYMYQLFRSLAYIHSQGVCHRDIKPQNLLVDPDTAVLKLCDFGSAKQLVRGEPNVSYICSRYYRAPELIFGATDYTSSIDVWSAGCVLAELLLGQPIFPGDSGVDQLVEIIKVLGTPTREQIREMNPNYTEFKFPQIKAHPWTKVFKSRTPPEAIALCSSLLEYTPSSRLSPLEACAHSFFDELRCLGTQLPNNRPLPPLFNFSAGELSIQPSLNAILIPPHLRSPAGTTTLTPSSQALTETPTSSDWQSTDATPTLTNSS
T1 sequence (P49841 whole entry, looked up): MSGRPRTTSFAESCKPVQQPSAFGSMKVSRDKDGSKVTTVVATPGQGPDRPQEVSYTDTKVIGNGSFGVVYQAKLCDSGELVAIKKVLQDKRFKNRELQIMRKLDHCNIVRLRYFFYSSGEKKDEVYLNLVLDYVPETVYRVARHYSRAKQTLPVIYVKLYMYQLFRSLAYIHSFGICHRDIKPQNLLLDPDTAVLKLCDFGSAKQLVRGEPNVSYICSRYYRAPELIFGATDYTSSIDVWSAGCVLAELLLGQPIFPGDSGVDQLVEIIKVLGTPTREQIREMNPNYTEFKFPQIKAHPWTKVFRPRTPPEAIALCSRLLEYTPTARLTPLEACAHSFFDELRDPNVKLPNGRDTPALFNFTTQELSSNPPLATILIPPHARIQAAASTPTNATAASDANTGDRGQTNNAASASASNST

Aurora kinase A = biological target: T2, Aurora kinase A (Homo sapiens, UniProt O14965); assay: Inhibition of Aurora2 (unknown origin)
T2 sequence (O14965 whole entry): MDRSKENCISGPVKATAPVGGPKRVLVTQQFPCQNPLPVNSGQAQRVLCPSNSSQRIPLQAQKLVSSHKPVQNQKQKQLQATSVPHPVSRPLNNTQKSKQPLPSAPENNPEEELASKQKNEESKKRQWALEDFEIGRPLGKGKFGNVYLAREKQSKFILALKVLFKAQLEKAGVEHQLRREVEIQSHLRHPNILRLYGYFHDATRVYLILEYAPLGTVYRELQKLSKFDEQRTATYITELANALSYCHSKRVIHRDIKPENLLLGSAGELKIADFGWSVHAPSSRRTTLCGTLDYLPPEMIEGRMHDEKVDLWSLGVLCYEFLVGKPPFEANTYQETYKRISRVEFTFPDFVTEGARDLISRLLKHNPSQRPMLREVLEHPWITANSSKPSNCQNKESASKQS

[3] = biological target: Mitogen-activated protein kinase 1 (Homo sapiens, UniProt P28482); assay: Inhibition of ERK2 (unknown origin)
Sequence of Mitogen-activated protein kinase 1 (P28482 whole entry): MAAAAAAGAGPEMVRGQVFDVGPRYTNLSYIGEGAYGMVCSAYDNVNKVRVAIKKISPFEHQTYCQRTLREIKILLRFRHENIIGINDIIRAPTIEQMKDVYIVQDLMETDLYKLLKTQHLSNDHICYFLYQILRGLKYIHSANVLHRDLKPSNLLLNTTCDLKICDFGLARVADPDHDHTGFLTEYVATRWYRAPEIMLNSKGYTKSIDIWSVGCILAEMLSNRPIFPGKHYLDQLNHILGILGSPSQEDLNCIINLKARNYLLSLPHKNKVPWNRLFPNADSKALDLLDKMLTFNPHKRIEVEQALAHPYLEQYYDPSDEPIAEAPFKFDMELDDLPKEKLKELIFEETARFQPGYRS

[4] = biological target: Proto-oncogene tyrosine-protein kinase Src (Homo sapiens, UniProt P12931); assay: Inhibition of SRC (unknown origin)
Sequence of Proto-oncogene tyrosine-protein kinase Src (P12931 2-536 limits assumed): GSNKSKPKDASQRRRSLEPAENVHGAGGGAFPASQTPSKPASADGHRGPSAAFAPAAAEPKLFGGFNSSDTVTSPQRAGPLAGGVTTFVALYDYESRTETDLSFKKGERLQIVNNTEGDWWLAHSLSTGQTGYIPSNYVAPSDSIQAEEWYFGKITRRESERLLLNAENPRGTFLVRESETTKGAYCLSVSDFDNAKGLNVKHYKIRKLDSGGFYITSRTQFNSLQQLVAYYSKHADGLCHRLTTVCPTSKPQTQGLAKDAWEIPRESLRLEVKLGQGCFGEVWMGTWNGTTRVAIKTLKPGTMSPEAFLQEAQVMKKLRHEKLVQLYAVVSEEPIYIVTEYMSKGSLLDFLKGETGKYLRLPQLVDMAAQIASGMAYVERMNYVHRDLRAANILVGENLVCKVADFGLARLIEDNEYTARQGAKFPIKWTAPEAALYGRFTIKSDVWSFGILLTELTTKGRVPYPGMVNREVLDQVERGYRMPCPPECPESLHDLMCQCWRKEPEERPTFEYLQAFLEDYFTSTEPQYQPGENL

[5] = biological target: T1, Glycogen synthase kinase-3; assay: Inhibition of GSK3 (unknown origin) at 1 uM; format: protein assay

Sequence of Glycogen synthase kinase-3 beta (P49841 whole entry): as the sequence (P49841 whole entry, looked up) above

Cc1ccc(-c2c[nH]c(C3COCCN3Cc3c[nH]c4ccccc34)n2)cc1 (stereo not given)
IC50 [1]: 0.12 µM

Cc1nc[nH]c1[C@H]1c2nc[nH]c2CCN1Cc1nc2ccccc2[nH]1
Ki [2]: < 100 µM
Ki (Aurora kinase A): < 100 µM
Ki [3]: 1000 µM
Ki [4]: < 0.1 µM

CCN(Cc1cn2cccc(C)c2n1)Cc1nc2ccccc2c(=O)[nH]1
IC50 [2]: < 10 µM

CCSc1nc2c([nH]1)[nH]c1ccccc12
inhibition [5]: 63%

O=[N+]([O-])c1ccc2c(c1)[n+]([O-])c1c3ccccc3[nH]c1[n+]2[O-]
IC50 (Aurora kinase A): < 5 µM
Ki [3]: < 1 µM

O=C(N=c1[nH]c2ccccc2[nH]1)NC[C@H]1CCC[C@@H](CNC(=O)N=c2[nH]c3ccccc3[nH]2)C1
IC50 [2]: 1 µM

Cc1nc[nH]c1[C@@H]1c2nc[nH]c2CCN1Cc1nc2ccccc2[nH]1
Ki [2]: < 100 µM
Ki (Aurora kinase A): < 100 µM
Ki [3]: 1000 µM
Ki [4]: < 0.1 µM

Cc1cccn2cc(CN(Cc3nc4ccccc4c(=O)[nH]3)C(C)C)nc12
Ki [2]: < 100 µM
Ki (Aurora kinase A): < 100 µM
Ki [3]: 1000 µM
Ki [4]: < 0.1 µM

C[n+]1c2ccccc2[n+]2[nH]c3ccccc3n12
IC50 [2]: 1 µM

CCN(CC)CCCNc1nc2ccccc2c2[nH]c3ccc(OC)cc3c12
IC50 [2]: 1 µM
